One assay has as its target Cannabinoid receptor 2 (Homo sapiens, UniProt P34972). In words: Binding affinity against human Cannabinoid receptor 2 by using radioligand ([3H]CP-55940) assay.
In assay [1] the target is Cannabinoid receptor (Homo sapiens) (UniProt P34972+P21554). In words: Ratio of binding affinity of hCB1 to hCB2 was reported. The format is protein assay.
Assay [2] has as its target T1, Cannabinoid receptor 1 (Homo sapiens, UniProt P21554). In words: Compound was evaluated for binding affinity against human cannabinoid receptor by using radioligand ([3H]CP-55940) assay; second determination.
Assay [3] deals with T1, Cannabinoid receptor 1. In words: Compound was evaluated for binding affinity against human cannabinoid receptor by using radioligand ([3H]CP-55940) assay; first determination.
Assay [4] concerns the target T1, Cannabinoid receptor 1. In words: Binding affinity against human cannabinoid receptor by using radioligand ([3H]CP-55940) assay.

Sequence of Cannabinoid receptor (Homo sapiens) (P21554 whole entry, looked up): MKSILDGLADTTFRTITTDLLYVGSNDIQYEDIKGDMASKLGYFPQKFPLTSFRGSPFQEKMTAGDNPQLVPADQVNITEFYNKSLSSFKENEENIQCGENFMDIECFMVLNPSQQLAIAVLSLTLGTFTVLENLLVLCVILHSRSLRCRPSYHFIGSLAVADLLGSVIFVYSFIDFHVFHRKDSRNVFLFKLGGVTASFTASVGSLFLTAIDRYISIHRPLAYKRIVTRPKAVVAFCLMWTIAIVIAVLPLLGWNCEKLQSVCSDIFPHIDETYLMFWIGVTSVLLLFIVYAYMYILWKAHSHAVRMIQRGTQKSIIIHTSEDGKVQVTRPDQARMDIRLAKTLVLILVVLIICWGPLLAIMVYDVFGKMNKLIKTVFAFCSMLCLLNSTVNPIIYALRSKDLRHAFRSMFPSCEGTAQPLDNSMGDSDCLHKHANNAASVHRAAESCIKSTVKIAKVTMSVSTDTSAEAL
Sequence of Cannabinoid receptor (Homo sapiens) (P34972 whole entry, looked up): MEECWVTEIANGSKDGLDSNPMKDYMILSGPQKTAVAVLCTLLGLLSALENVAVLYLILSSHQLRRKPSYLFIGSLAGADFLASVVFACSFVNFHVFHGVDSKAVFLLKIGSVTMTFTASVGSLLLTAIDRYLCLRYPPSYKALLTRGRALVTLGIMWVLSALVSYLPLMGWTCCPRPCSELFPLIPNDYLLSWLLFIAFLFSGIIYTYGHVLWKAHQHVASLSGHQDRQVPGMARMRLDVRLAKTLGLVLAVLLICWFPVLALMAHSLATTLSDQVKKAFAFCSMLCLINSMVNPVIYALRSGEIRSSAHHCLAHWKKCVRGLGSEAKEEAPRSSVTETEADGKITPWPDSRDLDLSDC
T1 sequence (P21554 whole entry): as the sequence (P21554 whole entry, looked up) above
Sequence of Cannabinoid receptor 2 (P34972 whole entry): as the sequence (P34972 whole entry, looked up) above

As a reminder, the Ki is the equilibrium dissociation constant of an inhibitor or competing ligand from its target. Turning to `CCCCCCC(C)(C)c1cc2c(c(OP(=O)(OCC)OCC)c1)[C@@H]1CC(C)=CC[C@H]1C(C)(C)O2`, the inhibition constant Ki on Cannabinoid receptor 2 was 0.442 µM; at Cannabinoid receptor 1 [2], over 20 µM; at Cannabinoid receptor 1 [3] it was over 20 µM. Also, in assay [1], the Ratio is over 45.

With `CCCCCCC(C)(C)c1ccc(-c2cc(C)cc(C)c2)cc1`, the results for the inhibitory constant (Ki) on Cannabinoid receptor 1 [4] and on Cannabinoid receptor 2 were over 30 µM and 2.14 µM, respectively. Also, the Ratio in assay [1] was over 14.

As to `CCCCCCC(C)(C)c1cc(O)c(-c2cc(C)cc(C)c2)c(O)c1`, the inhibition constant Ki on Cannabinoid receptor 1 [4] worked out at 0.0791 µM; at Cannabinoid receptor 2, 0.002 µM. Further, in assay [1], the Ratio was determined as 40.

For `CCCCCCC(C)(C)c1ccc(-c2cc(C)cc(C)c2)c(O)c1`, the results for the inhibition constant Ki at Cannabinoid receptor 1 [4] and on Cannabinoid receptor 2 were 0.0125 µM and 0.00414 µM, respectively. Also, the Ratio in assay [1] was determined as 3.

Regarding `CCCCCCC(C)(C)c1cc(O)c2c(c1)OC(C)(C)[C@H]1CC=C(C)C[C@H]21`, the figures for the Ki at Cannabinoid receptor 1 [4] and on Cannabinoid receptor 2 were 0.0388 µM and 0.0288 µM, respectively. The Ratio in assay [1] was 1.3.

For `CCCCCCC(C)(C)c1cc(OC)c2c(c1)OC(C)(C)[C@@H]1CCC(=O)C[C@@H]21`, the values for the inhibitory constant (Ki) at Cannabinoid receptor 1 [4] and on Cannabinoid receptor 2 were 0.621 µM and 0.132 µM, respectively. Further, the Ratio in assay [1] was determined as 4.7.

As to `CCCCCCC(C)(C)c1ccc2c(c1)OC(C)(C)[C@@H]1CC=C(C)C[C@@H]21`, the Ki on Cannabinoid receptor 1 [4] stood at 0.25 µM; on Cannabinoid receptor 2, 0.0208 µM. In assay [1], the Ratio turned out to be 12.

Turning to `C=C1CC[C@@H]2[C@@H](C1)c1c(OC)cc(C(C)(C)CCCCCC)cc1OC2(C)C`, the inhibition constant Ki at Cannabinoid receptor 1 [4] is over 20 µM; at Cannabinoid receptor 2, 0.0194 µM. In addition, the Ratio in assay [1] is over 1000.

Take `CCCCCCC(C)(C)c1cc(O)c2c(c1)OC(C)(C)[C@H]1CC=C(C=O)C[C@H]21`: the inhibitory constant (Ki) at Cannabinoid receptor 1 [4] came to 0.097 µM; on Cannabinoid receptor 2, 0.119 µM. Moreover, the Ratio in assay [1] was determined as 0.8.

On to `CCCCCCC(C)(C)c1cc(O)c2c(c1)OC(C)(C)[C@@H]1CC=C(C)C[C@@H]21`, for which the inhibition constant (Ki) came to 0.00083 µM at Cannabinoid receptor 1 [4] and 0.00049 µM on Cannabinoid receptor 2. The Ratio in assay [1] turned out to be 1.7.

Take `CCCCCCC(C)(C)c1cc(O)c([C@@H]2C=C(C)C3C[C@H]2C3(C)C)c(O)c1`: the results for the Ki on Cannabinoid receptor 1 [4] and at Cannabinoid receptor 2 were 0.35 µM and 0.0412 µM, respectively. Besides, in assay [1], the Ratio amounted to 9.

`CCCCCCC(C)(C)c1cc(O)c2c(c1)OC(C)(C)[C@@H]1CCC(=O)C[C@@H]21` [NABILONE]: the values for the inhibition constant Ki at Cannabinoid receptor 1 [4] and at Cannabinoid receptor 2 were 0.00219 µM and 0.00184 µM, respectively. The Ratio in assay [1] came out at 1.2.

With `CCCCCCC(C)(C)c1cc(O)c2c(c1)OC(C)(C)[C@@H]1CC=C(C=O)C[C@@H]21`, the Ki on Cannabinoid receptor 1 [4] worked out at 0.00224 µM; at Cannabinoid receptor 2 it was 0.00261 µM. For the same compound, the Ratio in assay [1] was found to be 0.9.

As for `CCCCCCC(C)(C)c1cc(OC)c(-c2cc(C)cc(C)c2)c(OC)c1`, the Ki at Cannabinoid receptor 1 [4] is over 20 µM; on Cannabinoid receptor 2 it was 0.433 µM. In addition, the Ratio in assay [1] was over 46.

Regarding `C=C1CC[C@@H]2[C@@H](C1)c1c(O)cc(C(C)(C)CCCCCC)cc1OC2(C)C`, the Ki amounted to 0.00182 µM on Cannabinoid receptor 1 [4] and 0.00058 µM at Cannabinoid receptor 2. In addition, the Ratio in assay [1] amounted to 3.1.

Take `CCCCCCC(C)(C)c1cc(OC)c2c(c1)OC(C)(C)[C@@H]1CC=C(C)C[C@@H]21`: the Ki was 15.8 µM at Cannabinoid receptor 1 [4] and 0.02 µM on Cannabinoid receptor 2. The Ratio in assay [1] was 793.

These data come from ChEMBL document CHEMBL1129188, “Structure activity relationships of tetrahydrocannabinol analogues on human cannabinoid receptors” (Bioorg Med Chem Lett, 1996).
